{
  "source": "PubChem BioAssay (NCI)",
  "test_in_all_cases": "NCI-60 cell line screen, 384-well format",
  "key": {"786-0 renal": {"system": "786-0 renal"}, "CAKI-1 renal": {"system": "CAKI-1 renal"}, "CCRF-CEM leukemia": {"system": "CCRF-CEM leukemia"}, "DU-145 prostate": {"system": "DU-145 prostate"}, "HCT-116 colon": {"system": "HCT-116 colon"}, "MALME-3M melanoma": {"system": "MALME-3M melanoma"}, "NCI-H522 lung": {"system": "NCI-H522 lung"}, "OVCAR-5 ovarian": {"system": "OVCAR-5 ovarian"}, "OVCAR-8 ovarian": {"system": "OVCAR-8 ovarian"}, "RPMI-8226 leukemia": {"system": "RPMI-8226 leukemia"}, "SF-295 CNS": {"system": "SF-295 CNS"}, "SK-MEL-5 melanoma": {"system": "SK-MEL-5 melanoma"}, "SNB-75 CNS": {"system": "SNB-75 CNS"}},
  "note": "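GI50 is the concentration that inhibits growth by half. TGI is the concentration that stops growth completely.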",
  "data": [
    {"compound": "CC(F)(F)c1cc(F)ccc1-c1sc2cc(O)ccc2c1Oc1ccc(/C=C/C(=O)O)cc1", "values": [
      {"measurement": "GI50", "setting": "786-0 renal", "value": 14.6, "unit": "µM"},
      {"measurement": "TGI", "setting": "786-0 renal", "value": 33.4, "unit": "µM"},
      {"measurement": "GI50", "setting": "CAKI-1 renal", "value": 15.1, "unit": "µM"},
      {"measurement": "TGI", "setting": "CAKI-1 renal", "value": 29.9, "unit": "µM"},
      {"measurement": "GI50", "setting": "CCRF-CEM leukemia", "value": 12.6, "unit": "µM"},
      {"measurement": "TGI", "setting": "CCRF-CEM leukemia", "value": 25.2, "unit": "µM"},
      {"measurement": "GI50", "setting": "DU-145 prostate", "value": 17.4, "unit": "µM"},
      {"measurement": "TGI", "setting": "DU-145 prostate", "value": 42.3, "unit": "µM"},
      {"measurement": "GI50", "setting": "HCT-116 colon", "value": 15.6, "unit": "µM"},
      {"measurement": "TGI", "setting": "HCT-116 colon", "value": 30.5, "unit": "µM"},
      {"measurement": "GI50", "setting": "MALME-3M melanoma", "value": 13.5, "unit": "µM"},
      {"measurement": "TGI", "setting": "MALME-3M melanoma", "value": 27.8, "unit": "µM"},
      {"measurement": "GI50", "setting": "NCI-H522 lung", "value": 8.38, "unit": "µM"},
      {"measurement": "TGI", "setting": "NCI-H522 lung", "value": 21.3, "unit": "µM"},
      {"measurement": "GI50", "setting": "OVCAR-5 ovarian", "value": 18.2, "unit": "µM"},
      {"measurement": "TGI", "setting": "OVCAR-5 ovarian", "value": 33.6, "unit": "µM"},
      {"measurement": "GI50", "setting": "OVCAR-8 ovarian", "value": 25.4, "unit": "µM"},
      {"measurement": "TGI", "setting": "OVCAR-8 ovarian", "value": "> 100", "unit": "µM"},
      {"measurement": "GI50", "setting": "RPMI-8226 leukemia", "value": 11, "unit": "µM"},
      {"measurement": "TGI", "setting": "RPMI-8226 leukemia", "value": 23.2, "unit": "µM"},
      {"measurement": "GI50", "setting": "SF-295 CNS", "value": 7.72, "unit": "µM"},
      {"measurement": "TGI", "setting": "SF-295 CNS", "value": 21.6, "unit": "µM"},
      {"measurement": "GI50", "setting": "SK-MEL-5 melanoma", "value": 12.2, "unit": "µM"},
      {"measurement": "TGI", "setting": "SK-MEL-5 melanoma", "value": 24.7, "unit": "µM"},
      {"measurement": "GI50", "setting": "SNB-75 CNS", "value": 15.5, "unit": "µM"},
      {"measurement": "TGI", "setting": "SNB-75 CNS", "value": 33, "unit": "µM"}
    ]}
  ]
}
